Patent publication US20250205152A1, “METHOD OF PREVENTING AGE-RELATED MACULAR DEGENERATION BY ADMINISTERING AN OCULAR DRUG DELIVERY INSERT” (EYEPOINT PHARMACEUTICALS, INC., priority 2022, published 2025)
Entries after “also recorded” stand apart in the source; their conditions may differ.

Legend:
[1] = test system: Swine (Mini-pig) Model of Laser-Induced Choroidal Neovascularization (CNV); assay: Laser-induced choroidal neovascularization model, fluorescein angiography (CTLF); format: in vivo; details: Day 0
Procedure: Safety and efficacy of a vorolanib insert were evaluated in a Swine (Mini-pig) Model of Laser-Induced Choroidal Neovascularization (CNV). The primary objective of this study was to evaluate the long-term safety and inhibition of vascular permeability and neovascularization in a laser-induced model of choroidal neovascularization (CNV) using a vorolanib insert in swine.
On the day of lasering (Groups 1-4) animals were treated with an 810 nm diode laser delivered through an indirect ophthalmoscope. Approximately 6 single laser spots were placed between retinal veins. Both eyes underwent laser treatment according to the schedule in the table above.
On the day of intravitreal injections animals were anesthetized and the eyes were aseptically prepared. […] Animals were allowed to recover normally from the procedure. The pigs were given a topical drop of antibiotic ophthalmic solution 4-6 hours later, and then BID for 2 additional days with at least 6 hours between doses. Animals were dosed on either Day 0 immediately following laser CNV induction or 7 days prior to laser CNV induction according to the schedule in the table above.
Flourescein Angiography was done in both eyes in anesthetized animals at the timepoints as indicated in the experimental design table.

[2] = test system: sodium Hyaluronate-induced retinal detachment; assay: Sodium hyaluronate-induced retinal detachment model: OKT and OCT; format: in vivo, C57Bl/6 mice
Procedure: (§1) An 18-day study was conducted in age-matched and experimentally naive C57Bl/6 mice. Prior to experiments, the mice were randomly distributed into two separate study arms, and identification numbers were assigned to individual mice. Prior to dosing initiation, baseline experiments were conducted to measure visual acuity and contrast vision by optokinetic tracking (OKT), and to measure retinal and outer nuclear layer (ONL) thickness in images obtained by optical coherence tomography (OCT). On Day 1, and continuing until Day 18, the mice received once a day oral administration of vehicle (Arm 1), or Vorolanib at 40 mg/kg (Arm 2). On Day 2, bilateral subretinal injection of sodium hyaluronate was performed to induce retinal detachment. On Day 16, visual acuity and contrast vision thresholds were measured, and on Day 17, OCT was performed to measure retinal and ONL thickness. On Day 18, terminal collections were performed at either 30 minutes, or 4 hours, post-administration, with whole blood collected and processed to plasma, left eyes collected and fixed for histology, and right eyes collected and dissected to yield cornea, lens, retinal pigment epithelium (RPE)/choroid/sclera, and retina, separately.
Mouse eyes were dilated and the animals were anesthetized according to standard operating procedures. The mouse was placed on a regulated heating pad, and the posterior pole was visualized under magnification. A 12.7 mm 30-gauge insulin syringe was used to puncture the cornea just above the corneal limbus, avoiding any contact with the sclera and lens. The transvitreal subretinal injections were performed using a 10 μL Hamilton syringe with a 33-gauge blunt needle inserted through the corneal puncture across the vitreous, with the shaft aimed at the back of the eyecup, avoiding any trauma to the lens or iris. A total volume of 1 μL was delivered.
OKT is performed using an OptoMotry designed for rodent use (Cerebral Mechanics Inc.). In this non-invasive assessment, mice are placed onto a platform surrounded by 4 LCD screens which reside within a light-protected box. Visual stimuli are then presented to the mouse via the LCD screens and a masked observer visualizes and scores optokinetic tracking reflexes from a digital camcorder which is mounted on the top of the box. The monitors display continuous vertical sine wave gratings rotating across the monitors at 12 degrees/s which appear to the animal as a virtual three-dimensional rotating […]. The rotation of the virtual cylinder is constantly centered at the animal's viewing position to ensure a consistent viewing distance. Tracking movements are identified as slow, steady head movements in the direction of the rotating grating. For measurements of spatial frequency threshold, mice were tested at a range of spatial frequencies from 0.064 to 0.464 cycles/degree. […] All measurements of contrast threshold were performed at a spatial frequency threshold of 0.064 cycles/degree. The contrast threshold is calculated as a reciprocal of the Michelson contrast from the screen's luminance (maximum−minimum)/(maximum+minimum). The reciprocal of the contrast threshold is plotted.
Animals were anesthetized and eyes were dilated according to standard procedures. Following sedation and dilation, animals were secured on a platform and presented to a Micron
IV OCT module (Phoenix Research Inc.) for imaging. The total retina thickness and outer nuclear layer thickness were measured from vertical and horizontal scans within each eye, and the data was plotted as the average retinal thickness across the scans.
Graphs were generated using GraphPad Prism (v. 9.4.0). […]

[3] = Solubility of vorolanib in water; format: physicochemical
Procedure: Vorolanib has the chemical designation (S,Z)—N-(1-(Dimethylcarbamoyl) pyrrolidin-3-yl)-5-((5-fluoro-2-oxoindolin-3-ylidene)methyl)-2,4-dimethyl-1H-pyrrole-3-carboxamide. Synonyms include the term “X-82”. The molecular formula is C23H26FN5O3. The solubility of vorolanib in water is less than 10 μg/mL.

[4] = Plasma and ocular tissue levels after oral vorolanib in the retinal detachment study; format: in vivo, C57Bl/6 mice; details: 40 mg/kg oral once a day
Procedure: as §1
(§2) Day 18 at 30 min±5 min following oral administration of vehicle or test agent: Terminal plasma collection; Enucleation of eyes with left eyes fixed in 10% NBF and right eyes dissected to yield cornea, lens, RPE/choroid/sclera, and retina, with tissue snap frozen in liquid N2 with tube and tissue weights recorded (n=4 mice/arm).
as §2, with “4 hr±15” for “30 min±5”
Oral gavage was performed on conscious mice by trained personnel; no anesthesia was required. […]

[5] = 40 mg/kg oral once a day, baseline to Day 17, OCT

With “aflibercept: VEGF inhibitor (Regeneron), intravitreal injection, positive control” the “efficacy in laser CNV model” value ([1]; 2 mg IVT) was “normal amounts of efficacy” and the “Corrected Total Lesion Fluorescence (CTLF) value, change from Day 7 to Day 28” value ([1]; Group 1: 2 mg, 50 μL/eye IVT) was “largest reduction”.

For `Cc1[nH]c(/C=C2\C(=O)Nc3ccc(F)cc32)c(C)c1C(=O)N[C@H]1CCN(C(=O)N(C)C)C1` [vorolanib, (S,Z)—N-(1-(Dimethylcarbamoyl)pyrrolidin-3-yl)-5-((5-fluoro-2-oxoindolin-3-ylidene)methyl)-2,4-dimethyl-1H-pyrrole-3-carboxamide], the “overall effect in retinal detachment model” value ([2]; 40 mg/kg once a day for 18 consecutive days, compared to vehicle) was “significant neuroprotective effect”, the “mean spatial frequency threshold (SFT)” value ([2]; 40 mg/kg oral once a day, Day 16) was 0.306 cycles/degree and the “contrast thresholds compared to vehicle” value ([2]; 40 mg/kg oral once a day, Day 16, P=0.0009) was “significantly higher; also recorded: statistically significant improvement”. For the same molecule, the “loss of contrast vision, baseline to Day 16” value ([2]; 40 mg/kg oral once a day, OKT) was 41%, the “loss of visual acuity, baseline to Day 16” value ([2]; 40 mg/kg oral once a day, OKT) was 23% and the “loss of ONL thickness in horizontal scans” value [2, 5] was “no loss”. The “loss of ONL thickness in vertical scans” value [2, 5] was 1%, the “total retinal thickness across the treatment arms” value ([2]; 40 mg/kg oral vs vehicle, OCT) was “no statistically significant differences” and the “difference in mean SFT versus vehicle” value ([2]; Day 16) was “not statistically significant”. For the same molecule, the “mean retinal thickness across vertical and horizontal scans” value ([2]; across both arms and timepoints) was 222-229 μm, the solubility [3] was less than 10 µg/mL and the presence in plasma ([4]; 18 consecutive days) was “present in the plasma up to 4 hours”. The tissue distribution ([4]; 18 days) was “primarily in RPE/Choroid/Sclera tissue at levels that exceed plasma concentrations” and the “detection in ocular tissues” value ([4]; up to 4 hours following the terminal dose) was “within detectable range in all ocular tissues tested, except lens tissue”.
